From ChEMBL document CHEMBL3091339 (J Med Chem, 2013)
Activity calls are given as the source filed them.

How the values were obtained:
Mus musculus [1] = assay: Anticonvulsant activity in CD-1 mouse assessed as protection against maximal electroshock-induced tonic extension of hind limbs at 300 mg/kg, ip after 0.5 hrs; assay type: functional, organism-based; set-up: dose 300 mg/kg; details: Hindlimb
Mus musculus [2] = assay: Neurotoxicity in CF-1 mouse at 250 mg/kg, po by rotarod test; assay type: toxicity, organism-based; set-up: dose 250 mg/kg, route oral; details: in vivo
Rattus norvegicus [3] = species: Rattus norvegicus; assay: Toxicity in Sprague-Dawley rat assessed as ataxia by Irwin test; assay type: organism-based; details: in vivo
Mus musculus [4] = assay: Anticonvulsant activity in CD-1 mouse assessed as protection against maximal electroshock-induced tonic extension of hind limbs at 100 mg/kg, po after 0.5 hrs; assay type: functional, organism-based; set-up: dose 100 mg/kg; details: Hindlimb
Mus musculus [5] = species: Mus musculus; assay: animal or person; details: CF-1, Hindlimb, po, 1 h
Description: Anticonvulsant activity in po dosed CF-1 mouse assessed as protection against maximal electroshock-induced tonic extension of hind limbs measured at 1 hr

Carbonic anhydrase 2 = Carbonic anhydrase 2 (Homo sapiens, UniProt P00918)
Description: Inhibition of human carbonic anhydrase 2 by CO2 hydration assay

Mus musculus [6] = assay: Neurotoxicity in CF-1 mouse at 150 mg/kg, po by rotarod test; assay type: toxicity, organism-based; set-up: dose 150 mg/kg, route oral; details: in vivo
Mus musculus [7] = assay: Anticonvulsant activity in CD-1 mouse assessed as protection against maximal electroshock-induced tonic extension of hind limbs at 100 mg/kg, po after 2 hrs; assay type: functional, organism-based; set-up: dose 100 mg/kg; details: Hindlimb
Rattus norvegicus [8] = assay: Anticonvulsant activity in ip dosed Sprague-Dawley rat hippocampal kindling model assessed as suppression of seizure activity treated 15 for mins post suprathreshold-stimulation; assay type: functional, organism-based; details: Hippocampus
Rattus norvegicus [9] = assay: Anticonvulsant activity in Sprague-Dawley rat hippocampal kindling model assessed as complete absence of seizure activity at >300 mg/kg, ip treated 15 for mins post suprathreshold-stimulation; assay type: functional, organism-based; details: Hippocampus
Mus musculus [10] = assay: Anticonvulsant activity in CD-1 mouse assessed as protection against maximal electroshock-induced tonic extension of hind limbs at 300 mg/kg, po after 2 hrs; assay type: functional, organism-based; set-up: dose 300 mg/kg; details: Hindlimb
Mus musculus [11] = assay: Anticonvulsant activity in CD-1 mouse assessed as protection against maximal electroshock-induced tonic extension of hind limbs at 300 mg/kg, po after 0.5 hrs; assay type: functional, organism-based; set-up: dose 300 mg/kg; details: Hindlimb
Rattus norvegicus [12] = assay: Anticonvulsant activity in Sprague-Dawley rat hippocampal kindling model assessed as reduction in global seizures at >26 mg/kg, ip treated 15 for mins post suprathreshold-stimulation; assay type: functional, organism-based; details: Hippocampus
[13] = biological target: Sodium channel protein type 2 subunit alpha (Rattus norvegicus) (UniProt P04775); assay type: cell-based; details: CHL1610
Sequence of Sodium channel protein type 2 subunit alpha (Rattus norvegicus) (P04775 whole entry, looked up): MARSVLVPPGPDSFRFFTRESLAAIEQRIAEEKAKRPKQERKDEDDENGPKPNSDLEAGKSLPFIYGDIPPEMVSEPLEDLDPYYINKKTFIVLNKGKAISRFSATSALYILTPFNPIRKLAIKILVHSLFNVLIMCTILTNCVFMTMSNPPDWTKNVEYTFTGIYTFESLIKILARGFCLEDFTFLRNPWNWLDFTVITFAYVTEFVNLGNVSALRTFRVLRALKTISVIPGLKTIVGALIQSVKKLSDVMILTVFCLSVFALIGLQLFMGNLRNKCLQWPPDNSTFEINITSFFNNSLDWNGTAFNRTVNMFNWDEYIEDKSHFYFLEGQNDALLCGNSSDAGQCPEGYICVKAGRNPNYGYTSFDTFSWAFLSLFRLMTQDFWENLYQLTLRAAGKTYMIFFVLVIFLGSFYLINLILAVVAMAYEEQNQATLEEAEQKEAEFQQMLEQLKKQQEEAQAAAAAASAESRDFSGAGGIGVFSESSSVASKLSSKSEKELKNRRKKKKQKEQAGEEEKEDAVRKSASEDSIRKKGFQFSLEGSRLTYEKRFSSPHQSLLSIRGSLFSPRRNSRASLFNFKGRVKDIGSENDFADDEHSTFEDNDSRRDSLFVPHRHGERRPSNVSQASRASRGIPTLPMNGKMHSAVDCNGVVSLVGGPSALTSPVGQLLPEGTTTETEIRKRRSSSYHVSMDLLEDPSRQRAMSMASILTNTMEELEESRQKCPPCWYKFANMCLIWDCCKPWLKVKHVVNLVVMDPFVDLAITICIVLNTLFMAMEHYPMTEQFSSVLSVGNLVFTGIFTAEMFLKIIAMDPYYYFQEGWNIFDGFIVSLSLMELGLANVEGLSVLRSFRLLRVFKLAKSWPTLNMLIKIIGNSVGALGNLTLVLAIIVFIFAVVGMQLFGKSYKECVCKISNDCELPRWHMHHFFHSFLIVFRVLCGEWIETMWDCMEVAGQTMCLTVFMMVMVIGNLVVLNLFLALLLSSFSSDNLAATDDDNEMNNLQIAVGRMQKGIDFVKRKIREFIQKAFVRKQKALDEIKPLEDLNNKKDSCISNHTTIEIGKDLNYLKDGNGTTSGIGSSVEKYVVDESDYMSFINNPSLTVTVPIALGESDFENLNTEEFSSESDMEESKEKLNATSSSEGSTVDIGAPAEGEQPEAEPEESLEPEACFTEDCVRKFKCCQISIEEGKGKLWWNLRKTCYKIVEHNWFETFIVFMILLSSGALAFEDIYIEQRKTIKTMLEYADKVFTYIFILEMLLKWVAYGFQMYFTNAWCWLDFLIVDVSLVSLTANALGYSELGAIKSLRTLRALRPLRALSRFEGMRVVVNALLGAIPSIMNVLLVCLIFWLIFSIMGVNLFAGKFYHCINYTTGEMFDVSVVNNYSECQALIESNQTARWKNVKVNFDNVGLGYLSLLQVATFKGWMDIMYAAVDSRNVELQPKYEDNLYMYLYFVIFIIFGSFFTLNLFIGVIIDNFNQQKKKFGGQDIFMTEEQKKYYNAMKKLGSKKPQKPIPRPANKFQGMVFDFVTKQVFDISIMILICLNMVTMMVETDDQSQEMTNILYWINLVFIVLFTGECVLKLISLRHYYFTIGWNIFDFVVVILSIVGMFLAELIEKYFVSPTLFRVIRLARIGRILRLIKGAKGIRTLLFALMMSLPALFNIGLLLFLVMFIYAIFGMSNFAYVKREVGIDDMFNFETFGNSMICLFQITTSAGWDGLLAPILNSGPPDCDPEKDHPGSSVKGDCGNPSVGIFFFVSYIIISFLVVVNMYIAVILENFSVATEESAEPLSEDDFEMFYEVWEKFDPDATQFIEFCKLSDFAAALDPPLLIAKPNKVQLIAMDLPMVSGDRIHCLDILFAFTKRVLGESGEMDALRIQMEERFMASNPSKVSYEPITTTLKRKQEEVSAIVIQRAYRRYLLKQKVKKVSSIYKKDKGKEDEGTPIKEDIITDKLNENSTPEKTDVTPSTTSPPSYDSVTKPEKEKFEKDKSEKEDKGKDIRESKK

In the case of `NS(=O)(=O)NC[C@H]1COc2ccccc2O1`, the Activity (Mus musculus [1]) is reported as “Active” and the Activity (Mus musculus [2]) is reported as “Non-toxic”.
For `NS(=O)(=O)NC[C@@H]1COc2ccccc2O1`, the Activity (Mus musculus [1]) was “Active” and the Activity (Rattus norvegicus [3]) was “Toxic”.
With `NS(=O)(=O)NC[C@H]1COc2c(Cl)cccc2O1` the Activity (Mus musculus [4]) was “inactive”, the ED50 (Mus musculus [5]) was 124 mg/kg and the IC50 (Carbonic anhydrase 2) was 220 µM.
In the case of `NS(=O)(=O)NC[C@H]1COc2ccc(Cl)cc2O1`, the Activity (Mus musculus [4]) is reported as “inactive” and the Activity (Mus musculus [6]) is reported as “Non-toxic”.
In the case of `COc1cccc2c1O[C@@H](CNS(N)(=O)=O)CO2`, the Activity (Mus musculus [4]) is reported as “inactive”, the IC50 (Carbonic anhydrase 2) is reported as 300 µM and the Activity (Mus musculus [7]) is reported as “inactive”.
With `CCC1(C)CC(=O)NC1=O` (centres undefined) the Activity (Rattus norvegicus [8]) was “inactive”.
`CCCC(CCC)C(=O)O` was tested, and the Activity (Rattus norvegicus [9]) was “Active” and the Activity (Rattus norvegicus [8]) was “Active”.
`Cc1ccc2c(c1)O[C@@H](CNS(N)(=O)=O)CO2` was tested, and the Activity (Mus musculus [10]) was “inactive” and the Activity (Mus musculus [11]) was “inactive”.
In the case of `NC(=O)N1c2ccccc2C=Cc2ccccc21`, the Activity (Rattus norvegicus [12]) is reported as “Active” and the Activity (Rattus norvegicus [8]) is reported as “Active”.
In the case of `NCC1(CC(=O)O)CCCCC1`, the Activity [13] is reported as “inactive”.
`NS(=O)(=O)NCC1CCc2ccccc2O1` (centres undefined) was tested, and the Activity (Mus musculus [11]) was “Active” and the Activity (Mus musculus [7]) was “inactive”.
In the case of `NS(=O)(=O)NCC1Oc2ccc(Cl)cc2O1` (centres undefined), the Activity (Mus musculus [4]) is reported as “inactive” and the Activity (Mus musculus [7]) is reported as “inactive”.
